Results taken from ChEMBL document CHEMBL2375249, “Synthesis and biological evaluation of novel pyrrolidine-2,5-dione derivatives as potential antidepressant agents. Part 1” (Eur J Med Chem, 2013).
Activity calls are given as the source filed them. The calls are words filed in the database; no cut-off is given here.

Key:
[1] = target: Sodium-dependent serotonin transporter (Rattus norvegicus, UniProt P31652); assay: Displacement of [3H]-citalopram from SERT in rat cerebral cortex after 1 hr by liquid scintillation counting analysis; type: tissue-based
Sodium-dependent serotonin transporter, sequence (P31652 whole entry): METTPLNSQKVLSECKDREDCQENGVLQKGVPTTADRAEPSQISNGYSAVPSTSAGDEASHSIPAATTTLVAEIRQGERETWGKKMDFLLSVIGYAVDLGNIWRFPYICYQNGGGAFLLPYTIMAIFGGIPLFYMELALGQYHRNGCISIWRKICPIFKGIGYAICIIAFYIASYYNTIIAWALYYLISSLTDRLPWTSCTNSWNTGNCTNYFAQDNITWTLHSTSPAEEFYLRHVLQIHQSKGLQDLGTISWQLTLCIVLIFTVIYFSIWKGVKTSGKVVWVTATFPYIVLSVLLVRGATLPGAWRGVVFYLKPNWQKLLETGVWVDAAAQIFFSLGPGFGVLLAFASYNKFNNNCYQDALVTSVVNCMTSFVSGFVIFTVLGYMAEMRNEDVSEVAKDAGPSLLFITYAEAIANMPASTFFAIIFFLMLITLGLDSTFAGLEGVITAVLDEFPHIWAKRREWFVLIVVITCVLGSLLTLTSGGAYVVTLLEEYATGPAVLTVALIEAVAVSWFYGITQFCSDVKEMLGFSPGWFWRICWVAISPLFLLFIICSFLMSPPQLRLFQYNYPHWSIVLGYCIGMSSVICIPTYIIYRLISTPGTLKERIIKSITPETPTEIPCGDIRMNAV

[2] = target: T1, 5-hydroxytryptamine receptor 1A (Rattus norvegicus, UniProt P19327); assay: Displacement of [3H]-8-OH-DPAT from 5HT1A receptor in rat hippocampal membranes after 20 mins; type: cell membranes, Hippocampus, Membrane
T1 sequence (P19327 whole entry): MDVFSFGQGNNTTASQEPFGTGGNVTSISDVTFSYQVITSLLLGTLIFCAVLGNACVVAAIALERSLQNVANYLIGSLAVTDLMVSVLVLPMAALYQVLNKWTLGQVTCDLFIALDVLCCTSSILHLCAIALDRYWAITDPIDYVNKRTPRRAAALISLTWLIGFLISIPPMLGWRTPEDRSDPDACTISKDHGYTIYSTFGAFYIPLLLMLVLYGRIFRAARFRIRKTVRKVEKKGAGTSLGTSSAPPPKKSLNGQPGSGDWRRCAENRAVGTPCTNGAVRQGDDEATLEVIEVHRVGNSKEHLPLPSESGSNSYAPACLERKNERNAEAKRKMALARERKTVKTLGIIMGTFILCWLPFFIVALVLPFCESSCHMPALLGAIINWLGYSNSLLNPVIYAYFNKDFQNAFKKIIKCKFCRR

[3] = target: 5-hydroxytryptamine receptor 6 (Homo sapiens, UniProt P50406); assay: Displacement of [3H]-LSD from human 5HT6 receptor expressed in HEK293 cells after 1 hr; type: cell-based
5-hydroxytryptamine receptor 6, sequence (P50406 whole entry): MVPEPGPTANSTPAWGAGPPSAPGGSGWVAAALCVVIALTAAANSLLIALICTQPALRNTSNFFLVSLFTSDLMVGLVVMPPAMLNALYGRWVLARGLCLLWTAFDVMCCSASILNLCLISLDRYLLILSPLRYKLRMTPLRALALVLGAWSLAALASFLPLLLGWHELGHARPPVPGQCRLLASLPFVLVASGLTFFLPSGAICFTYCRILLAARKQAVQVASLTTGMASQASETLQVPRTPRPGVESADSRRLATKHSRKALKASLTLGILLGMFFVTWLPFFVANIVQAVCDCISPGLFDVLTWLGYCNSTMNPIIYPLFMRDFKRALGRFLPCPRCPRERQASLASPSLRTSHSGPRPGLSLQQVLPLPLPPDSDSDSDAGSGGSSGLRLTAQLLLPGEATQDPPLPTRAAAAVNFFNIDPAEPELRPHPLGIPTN

[4] = target: D(2) dopamine receptor (Homo sapiens, UniProt P14416); assay: Displacement of [3H]-raclopride from human dopamine D2L receptor expressed in HEK293 cells after 1 hr; type: cell-based
D(2) dopamine receptor, sequence (P14416 whole entry): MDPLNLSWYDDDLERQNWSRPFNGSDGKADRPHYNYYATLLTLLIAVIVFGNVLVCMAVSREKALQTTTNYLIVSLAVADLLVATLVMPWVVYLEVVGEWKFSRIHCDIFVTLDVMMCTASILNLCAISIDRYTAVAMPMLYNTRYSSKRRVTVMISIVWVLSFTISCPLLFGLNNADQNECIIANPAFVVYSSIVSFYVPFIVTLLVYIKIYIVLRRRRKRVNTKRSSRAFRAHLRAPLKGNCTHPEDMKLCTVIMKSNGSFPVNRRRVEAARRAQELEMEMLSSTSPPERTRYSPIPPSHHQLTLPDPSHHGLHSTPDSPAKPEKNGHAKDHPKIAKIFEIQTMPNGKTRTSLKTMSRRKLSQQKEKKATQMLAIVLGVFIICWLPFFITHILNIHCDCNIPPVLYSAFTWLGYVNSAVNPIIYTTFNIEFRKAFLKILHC

[5] = target: 5-hydroxytryptamine receptor 7 (Homo sapiens, UniProt P34969); assay: Displacement of [3H]-5CT from human 5HT7 receptor expressed in HEK293 cells after 1 hr; type: cell-based
5-hydroxytryptamine receptor 7, sequence (P34969 whole entry): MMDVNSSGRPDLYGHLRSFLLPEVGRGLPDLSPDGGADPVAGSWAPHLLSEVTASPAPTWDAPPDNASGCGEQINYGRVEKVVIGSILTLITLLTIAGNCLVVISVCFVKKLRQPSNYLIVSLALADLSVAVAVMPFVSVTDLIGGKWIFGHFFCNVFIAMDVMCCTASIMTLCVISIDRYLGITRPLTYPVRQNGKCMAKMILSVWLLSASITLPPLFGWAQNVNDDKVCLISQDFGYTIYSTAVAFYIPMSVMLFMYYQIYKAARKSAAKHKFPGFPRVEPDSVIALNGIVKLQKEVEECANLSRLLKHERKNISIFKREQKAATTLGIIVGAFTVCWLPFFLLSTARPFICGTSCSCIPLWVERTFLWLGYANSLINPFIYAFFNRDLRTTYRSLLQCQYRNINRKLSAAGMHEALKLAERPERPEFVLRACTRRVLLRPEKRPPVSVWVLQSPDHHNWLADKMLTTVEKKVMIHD

[6] = target: 5-hydroxytryptamine receptor 2A (Rattus norvegicus, UniProt P14842); assay: Displacement of [3H]-ketanserin from 5HT2A in rat cerebral cortex 20 mins by liquid scintillation counting analysis; type: tissue-based
5-hydroxytryptamine receptor 2A, sequence (P14842 whole entry): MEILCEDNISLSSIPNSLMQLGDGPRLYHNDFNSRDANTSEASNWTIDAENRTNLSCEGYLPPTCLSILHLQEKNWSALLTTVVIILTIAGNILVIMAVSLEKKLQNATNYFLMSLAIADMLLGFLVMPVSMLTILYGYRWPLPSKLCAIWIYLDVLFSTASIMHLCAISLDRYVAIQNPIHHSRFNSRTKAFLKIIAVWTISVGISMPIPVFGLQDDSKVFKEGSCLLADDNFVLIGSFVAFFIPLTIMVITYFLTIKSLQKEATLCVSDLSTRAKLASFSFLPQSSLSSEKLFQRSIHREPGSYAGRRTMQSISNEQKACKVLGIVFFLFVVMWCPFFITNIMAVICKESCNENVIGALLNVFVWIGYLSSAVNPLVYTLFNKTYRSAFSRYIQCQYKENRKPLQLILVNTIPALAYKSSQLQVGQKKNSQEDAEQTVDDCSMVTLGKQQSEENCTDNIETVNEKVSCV

[7] = test system: Mus musculus; assay: Induction of hypothermia in CD1 mouse assessed as change in rectal body temperature at 2.5 mg/kg, ip administered 30 mins prior to test measured after 60 mins relative to control; type: functional, organism-based; set-up: dose 2.5 mg/kg
[8] = test system: Mus musculus; assay: Antidepressant activity in CD1 mouse assessed as reduction in immobility time at 2.5 to 5 mg/kg, ip measured during final 4 mins in 6 mins test session after 2 mins habituation period by forced swimming test; type: functional, organism-based
[9] = test system: Mus musculus; assay: Induction of hypothermia in CD1 mouse assessed as change in rectal body temperature at 2.5 mg/kg, ip administered 30 mins prior to test measured after 30 mins relative to control; type: functional, organism-based; set-up: dose 2.5 mg/kg
[10] = test system: Mus musculus; assay: Induction of hypothermia in CD1 mouse assessed as change in rectal body temperature at 2.5 mg/kg, ip administered 30 mins prior to test measured after 120 mins relative to control; type: functional, organism-based; set-up: dose 2.5 mg/kg
[11] = test system: Mus musculus; assay: Induction of hypothermia in CD1 mouse assessed as change in rectal body temperature at 2.5 mg/kg, ip administered 30 mins prior to test measured after 90 mins relative to control; type: functional, organism-based; set-up: dose 2.5 mg/kg
[12] = test system: Mus musculus; assay: Induction of hypothermia in CD1 mouse assessed as change in rectal body temperature at 5 mg/kg, ip administered 30 mins prior to test measured after 30 mins in presence of WAY 100635 relative to control; type: functional, organism-based; set-up: dose 5 mg/kg
[13] = test system: Mus musculus; assay: Induction of hypothermia in CD1 mouse assessed as change in rectal body temperature at 5 mg/kg, ip administered 30 mins prior to test measured after 60 mins in presence of WAY 100635 relative to control; type: functional, organism-based; set-up: dose 5 mg/kg
[14] = test system: Mus musculus; assay: Induction of hypothermia in CD1 mouse assessed as change in rectal body temperature at 5 mg/kg, ip administered 30 mins prior to test measured after 120 mins relative to control; type: functional, organism-based; set-up: dose 5 mg/kg
[15] = test system: Mus musculus; assay: Induction of hypothermia in CD1 mouse assessed as change in rectal body temperature at 5 mg/kg, ip administered 30 mins prior to test measured after 60 mins relative to control; type: functional, organism-based; set-up: dose 5 mg/kg
[16] = test system: Mus musculus; assay: Induction of hypothermia in CD1 mouse assessed as change in rectal body temperature at 5 mg/kg, ip administered 30 mins prior to test measured after 30 mins relative to control; type: functional, organism-based; set-up: dose 5 mg/kg
[17] = test system: Mus musculus; assay: Induction of hypothermia in CD1 mouse assessed as change in rectal body temperature at 5 mg/kg, ip administered 30 mins prior to test measured after 90 mins relative to control; type: functional, organism-based; set-up: dose 5 mg/kg
[18] = test system: Mus musculus; assay: Induction of hypothermia in CD1 mouse assessed as change in rectal body temperature at 2.5 mg/kg, ip administered 30 mins prior to test measured after 60 mins in presence of WAY 100635 relative to control; type: functional, organism-based; set-up: dose 2.5 mg/kg
[19] = test system: Mus musculus; assay: Induction of hypothermia in CD1 mouse assessed as change in rectal body temperature at 2.5 mg/kg, ip administered 30 mins prior to test measured after 30 mins in presence of WAY 100635 relative to control; type: functional, organism-based; set-up: dose 2.5 mg/kg
[20] = test system: Mus musculus; assay: Antidepressant activity in CD1 mouse assessed as reduction in immobility time at 1 to 2 mg/kg, sc measured during final 4 mins in 6 mins test session after 2 mins habituation period by forced swimming test; type: functional, organism-based

O=C1CC(c2c[nH]c3ccccc23)C(=O)N1CCCN1CC=C(c2c[nH]c3ccc(Br)cc23)CC1 (racemic)
Ki [1]: 182 nM | Ki [2]: 111 nM

O=C1CC(c2c[nH]c3ccccc23)C(=O)N1CCCN1CC=C(c2c[nH]c3ccccc23)CC1 (racemic)
Ki [1]: 4 nM | Ki [2]: 161 nM

O=C1CC(c2c[nH]c3ccccc23)C(=O)N1CCN1CCC(c2c[nH]c3ccc(F)cc23)CC1 (racemic)
Ki [1]: 381 nM | Ki [2]: 8.1 nM | Ki [3]: 1150 nM | Ki [4]: 80 nM | Ki [5]: 1160 nM | Ki [6]: 384 nM

O=C1CC(c2c[nH]c3ccccc23)C(=O)N1CCCCN1CC=C(c2c[nH]c3ccc(Cl)cc23)CC1 (racemic)
Ki [1]: 74.4 nM | Ki [2]: 68.7 nM

O=C1CC(c2c[nH]c3ccccc23)C(=O)N1CCCN1CC=C(c2c[nH]c3ccc(F)cc23)CC1 (racemic)
Ki [1]: 5.2 nM | Ki [2]: 106 nM

O=C1CC(c2c[nH]c3ccccc23)C(=O)N1CCN1CC=C(c2c[nH]c3ccc(F)cc23)CC1 (racemic)
Ki [1]: 68.4 nM | Ki [2]: 372 nM

O=C1CC(c2c[nH]c3ccccc23)C(=O)N1CCCCN1CC=C(c2c[nH]c3ccc(F)cc23)CC1 (racemic)
Ki [1]: 20 nM | deltaT [7]: -0.7 °C | Activity [8]: inactive | deltaT [9]: -0.6 °C | deltaT [10]: -0.7 °C | deltaT [11]: -0.7 °C | deltaT [12]: -0.5 °C | deltaT [13]: -0.2 °C | Ki [2]: 17.6 nM | deltaT [14]: -1.2 °C | deltaT [15]: -1.5 °C | deltaT [16]: -1.6 °C | deltaT [17]: -1.3 °C

O=C1CC(c2c[nH]c3ccccc23)C(=O)N1CCN1CC=C(c2c[nH]c3ccc(Cl)cc23)CC1 (racemic)
Ki [1]: 96.7 nM | Ki [2]: 406 nM

O=C1CC(c2c[nH]c3ccccc23)C(=O)N1CCCN1CCC(c2c[nH]c3ccccc23)CC1 (racemic)
Ki [1]: 354 nM | Ki [2]: 68.5 nM

O=C1CC(c2c[nH]c3ccccc23)C(=O)N1CCCCN1CCC(c2c[nH]c3ccccc23)CC1 (racemic)
Ki [1]: 5.7 nM | deltaT [7]: -1.5 °C | deltaT [9]: -1.3 °C | deltaT [10]: -1.2 °C | deltaT [11]: -1.3 °C | Ki [2]: 15.7 nM | deltaT [14]: -2.1 °C | deltaT [18]: -1.1 °C | deltaT [19]: -1 °C | deltaT [15]: -2.8 °C | deltaT [16]: -2.4 °C | deltaT [17]: -2.1 °C

O=C1CC(c2c[nH]c3ccccc23)C(=O)N1CCN1CC=C(c2c[nH]c3ccccc23)CC1 (racemic)
Ki [1]: 33.8 nM | Ki [2]: 250 nM

COc1ccc2[nH]cc(C3=CCN(CCN4C(=O)CC(c5c[nH]c6ccccc56)C4=O)CC3)c2c1 (racemic)
Ki [1]: 784 nM | Ki [2]: 1740 nM

O=C1CC(c2c[nH]c3ccccc23)C(=O)N1CCCCN1CC=C(c2c[nH]c3ccccc23)CC1 (racemic)
Ki [1]: 11.3 nM | deltaT [7]: -0.6 °C | deltaT [9]: -0.7 °C | deltaT [10]: -0.9 °C | deltaT [11]: -0.9 °C | deltaT [12]: -1.2 °C | deltaT [13]: -1.2 °C | Ki [2]: 12.5 nM | deltaT [14]: -1.4 °C | deltaT [15]: -1.4 °C | deltaT [16]: -1.5 °C | deltaT [17]: -1.5 °C

O=C1CC(c2c[nH]c3ccccc23)C(=O)N1CCCN1CCC(c2c[nH]c3ccc(F)cc23)CC1 (racemic)
Ki [1]: 215 nM | Ki [2]: 122 nM

CCCN(CCC)C1CCc2cccc(O)c2C1 (configuration not stated)
Activity [20]: Active

O=C1CC(c2c[nH]c3ccccc23)C(=O)N1CCCCN1CCC(c2c[nH]c3ccc(F)cc23)CC1 (racemic)
Ki [1]: 505 nM | Ki [2]: 7.5 nM | Ki [3]: 63 nM | Ki [4]: 14 nM | Ki [5]: 196 nM | Ki [6]: 71 nM

O=C1CC(c2c[nH]c3ccccc23)C(=O)N1CCCN1CC=C(c2c[nH]c3ccc(Cl)cc23)CC1 (racemic)
Ki [1]: 50.7 nM | Ki [2]: 285 nM

O=C1CC(c2c[nH]c3ccccc23)C(=O)N1CCCCN1CC=C(c2c[nH]c3ccc(Br)cc23)CC1 (racemic)
Ki [1]: 208 nM | Ki [2]: 59.1 nM

COc1ccc2[nH]cc(C3CCN(CCCN4C(=O)CC(c5c[nH]c6ccccc56)C4=O)CC3)c2c1 (racemic)
Ki [1]: 221 nM | Ki [2]: 32.6 nM | Ki [3]: 264 nM | Ki [4]: 343 nM | Ki [5]: 589 nM | Ki [6]: 11600 nM

O=C1CC(c2c[nH]c3ccccc23)C(=O)N1CCN1CC=C(c2c[nH]c3ccc(Br)cc23)CC1 (racemic)
Ki [1]: 673 nM | Ki [2]: 324 nM

COc1ccc2[nH]cc(C3CCN(CCN4C(=O)CC(c5c[nH]c6ccccc56)C4=O)CC3)c2c1 (racemic)
Ki [1]: 1850 nM | Ki [2]: 352 nM

COc1ccc2[nH]cc(C3=CCN(CCCN4C(=O)CC(c5c[nH]c6ccccc56)C4=O)CC3)c2c1 (racemic)
Ki [1]: 125 nM | Ki [2]: 210 nM

COc1ccc2[nH]cc(C3CCN(CCCCN4C(=O)CC(c5c[nH]c6ccccc56)C4=O)CC3)c2c1 (racemic)
Ki [1]: 210 nM | Ki [2]: 2.2 nM | Ki [3]: 159 nM | Ki [4]: 161 nM | Ki [5]: 345 nM | Ki [6]: 498 nM

O=C1CC(c2c[nH]c3ccccc23)C(=O)N1CCN1CCC(c2c[nH]c3ccccc23)CC1 (racemic)
Ki [1]: 56 nM | Ki [2]: 364 nM

COc1ccc2[nH]cc(C3=CCN(CCCCN4C(=O)CC(c5c[nH]c6ccccc56)C4=O)CC3)c2c1 (racemic)
Ki [1]: 46.2 nM | deltaT [7]: -0.5 °C | Activity [8]: inactive | deltaT [9]: -0.5 °C | deltaT [10]: -0.4 °C | deltaT [11]: -0.7 °C | deltaT [12]: -0.4 °C | deltaT [13]: -0.3 °C | Ki [2]: 3.2 nM | deltaT [14]: -0.9 °C | deltaT [15]: -1.1 °C | deltaT [16]: -1.1 °C | deltaT [17]: -1.1 °C
